Assay results reported in US20200215074A1, “Method of Treatment of Cancer” (CIPLA LIMITED, priority 2017, published 2020).

Legend:
PAR-4 [1] = assay: PAR-4 inducing activity, general statement of the inventors; assay type: cell-based, human and mouse; settings: summary statement, no test details
PAR-4 [2] = settings: literature (Burikhanov et al. 2014); cited from earlier work
PAR-4 [3] = assay: In-vitro PAR-4 induction in mouse embryonic fibroblast cells (Western blot); assay type: cell-based; settings: for PAR-4 secretion in the cell supernatant: 18-21 h incubation, Western blot
Protocol: (§1) Mouse embryonic fibroblast cells were harvested from exponential phase cultures. After a 24 h recovery period to allow the cells to resume exponential growth the cells were treated with M of Pyronaridine followed by further 18-21 h of incubation. […] The samples were also subjected to SDS/PAGE and Coomassie blue staining to determine albumin levels in serum from the Conditioned Medium (CM) as another loading control.
as §1, with “[…]” for “Pyronaridine”, “CM” for “Conditioned Medium (CM)”
as §1, with “fibroblast” for “fibroblast cells”, “with 25 µM” for “with M”, “of Meloquine” for “of Pyronaridine”, “the cell supernatant” for “the Conditioned Medium (CM)”
as §1, with “[…]” for “Pyronaridine”, “CM” for “Conditioned Medium (CM)”
as §1, with “fibroblast” for “fibroblast cells”, “with 25 μM” for “with M”, “of Mebendazole” for “of Pyronaridine”, “the cell supernatant” for “the Conditioned Medium (CM)”
as §1, with “fibroblast” for “fibroblast cells”, “with 25 µM” for “with M”, “of Tafenoquine” for “of Pyronaridine”, “the cell supernatant” for “the Conditioned Medium (CM)”
The experiment was conducted as per method set in an Example 1.

GRP-78 = assay: In-vitro GRP-78 induction in human ovarian and renal cancer cell lines (Western blot); assay type: cell-based; settings: 25 μM, 18-21 h
Protocol: (§2) Human ovarian cancer cell line SKOV-3 and renal cancer cell line 786-0 were harvested from exponential phase cultures. After a 24 h recovery period to allow the cells to resume exponential growth the cells were treated with 25 μM of Mefloquine followed by further 18-21 h of incubation. Induction of GRP-78 expression was checked in the cell lysate by subjecting the samples to Western blot analysis with antibodies specific for GRP-78.
as §2, with “Mebendazole” for “Mefloquine”
as §2, with “Tafenoquine” for “Mefloquine”

PAR-4 [4] = assay: In-vivo PAR-4 induction in C57/BL6 mice (systemic serum PAR-4); design: species or system mouse; settings: blood 24 hrs later
Protocol: Immunocompetent mice were orally administered with 10 mg/kg and 51.2 mg/kg body weight of Mefloquine or vehicle for 3 consecutive days followed by collection of blood 24 hrs later, serum separation and testing for systemic levels of PAR-4. Immunocompetent mice were orally administered with 1.5 mg/kg body weight of Narasin or vehicle for 3 consecutive days followed by collection of blood 24 hrs later, serum separation and testing for systemic levels of PAR-4.

PAR-4 [5] = settings: at micromolar levels; cited from earlier work
metastatic lung tumors = settings: injected in mice; literature (Zhao et al. 2011); cited from earlier work
[6] = 25 μM (25 M [sic] for Mefloquine and Tafenoquine)
[7] = SKOV-3 human ovarian cancer cell line

COc1ccc(-c2ccc3cc(C(=O)O)ccc3c2)cc1C12CC3CC(CC(C3)C1)C2 [Adapalene]
PAR-4 inducing activity (PAR-4 [1]): found to possess PAR-4 inducing activity

CN(C)c1ccc2cc(-c3ccccc3F)c(N)nc2c1 [Arylquin-1]
Secretion of PAR-4 from normal cells in mice (PAR-4 [2]): can increase secretion of PAR-4

Cc1cccc(C)c1OCC(=O)N[C@@H](Cc1ccccc1)[C@@H](O)C[C@H](Cc1ccccc1)NC(=O)[C@H](C(C)C)N1CCCNC1=O [Lopinavir]
PAR-4 secretion in the cell supernatant (PAR-4 [3]; test concentration not given): able to induce robust PAR-4 secretion
PAR-4 inducing activity (PAR-4 [1]): found to possess PAR-4 inducing activity

COC(=O)Nc1nc2ccc(C(=O)c3ccccc3)cc2[nH]1 [Mebendazole]
PAR-4 secretion in the cell supernatant (PAR-4 [3]; [6]): able to induce robust PAR-4 secretion
Induction of PAR-4 in cell lysate (PAR-4 [3]): Induction of PAR-4
GRP-78 expression in cell lysate (GRP-78; 786-0 renal cancer cell line): induced GRP-78 expression
GRP-78 expression in cell lysate (GRP-78; [7]): induced GRP-78 expression
PAR-4 inducing activity (PAR-4 [1]): found to possess PAR-4 inducing activity

OC(c1cc(C(F)(F)F)nc2c(C(F)(F)F)cccc12)C1CCCCN1 (stereo not shown) [Mefloquine]
PAR-4 secretion in the cell supernatant (PAR-4 [3]; [6]): able to induce robust PAR-4 secretion
Elevation of PAR-4 in mouse serum relative to vehicle (PAR-4 [4]; oral 51.2 mg/kg for 3 consecutive days): induced robust elevation of PAR-4
GRP-78 expression in cell lysate (GRP-78; 786-0 renal cancer cell line): induced GRP-78 expression
GRP-78 expression in cell lysate (GRP-78; [7]): induced GRP-78 expression
PAR-4 inducing activity (PAR-4 [1]): found to possess PAR-4 inducing activity

CCn1cc(C(=O)O)c(=O)c2ccc(C)nc21 [Nalidixic Acid]
PAR-4 secretion in the cell supernatant (PAR-4 [3]; test concentration not given): able to induce robust PAR-4 secretion
PAR-4 inducing activity (PAR-4 [1]): found to possess PAR-4 inducing activity

CC[C@@H](C(=O)O)[C@@H]1O[C@@H]([C@@H](C)[C@H](O)[C@H](C)C(=O)[C@H](CC)[C@H]2O[C@]3(C=C[C@@H](O)[C@]4(CC[C@@](C)([C@H]5CC[C@](O)(CC)[C@H](C)O5)O4)O3)[C@H](C)C[C@@H]2C)[C@@H](C)C[C@@H]1C [Narasin]
PAR-4 secretion in the cell supernatant (PAR-4 [3]; test concentration not given): able to induce robust PAR-4 secretion
Elevation of PAR-4 in mouse serum relative to vehicle (PAR-4 [4]; oral 1.5 mg/kg for 3 consecutive days): induced robust elevation of PAR-4
PAR-4 inducing activity (PAR-4 [1]): found to possess PAR-4 inducing activity

COc1ccc(C2=N[C@@H](c3ccc(Cl)cc3)[C@@H](c3ccc(Cl)cc3)N2C(=O)N2CCNC(=O)C2)c(OC(C)C)c1 [Nutlin-3a]
PAR-4 secretion in MEF cells (PAR-4 [5]): stimulated PAR-4 secretion
Secretion of PAR-4 from normal cells in mice (PAR-4 [2]): can increase secretion of PAR-4

O=C(Nc1cc(Cl)cc2c1[nH]c1cnccc12)c1cccnc1 [PS-1145]
Secretion of PAR-4 from normal cells in mice (PAR-4 [2]): can increase secretion of PAR-4

CCn1cc(C(=O)O)c(=O)c2cnc(N3CCNCC3)nc21 [Pipemidic Acid]
PAR-4 secretion in the cell supernatant (PAR-4 [3]; test concentration not given): able to induce robust PAR-4 secretion
PAR-4 inducing activity (PAR-4 [1]): found to possess PAR-4 inducing activity

COc1ccc2nc3cc(Cl)ccc3c(Nc3cc(CN4CCCC4)c(O)c(CN4CCCC4)c3)c2n1 [Pyronaridine]
Dose dependence of PAR-4 induction (PAR-4 [3]): in a dose dependent manner
PAR-4 secretion in the cell supernatant (PAR-4 [3]; test concentration not given): able to induce robust PAR-4 secretion
PAR-4 inducing activity (PAR-4 [1]): found to possess PAR-4 inducing activity

C[C@@H]1CN(c2c(F)c(N)c3c(=O)c(C(=O)O)cn(C4CC4)c3c2F)C[C@H](C)N1 [Sparfloxacin]
PAR-4 secretion in the cell supernatant (PAR-4 [3]; test concentration not given): able to induce robust PAR-4 secretion
PAR-4 inducing activity (PAR-4 [1]): found to possess PAR-4 inducing activity

COc1cc(C)c2c(Oc3cccc(C(F)(F)F)c3)c(OC)cc(NC(C)CCCN)c2n1 (stereo not shown) [Tafenoquine]
Dose dependence of PAR-4 induction (PAR-4 [3]): Dose dependent induction of PAR-4
PAR-4 secretion in the cell supernatant (PAR-4 [3]; [6]): able to induce robust PAR-4 secretion
Induction of PAR-4 in cell lysate (PAR-4 [3]): Induction of PAR-4
GRP-78 expression in cell lysate (GRP-78; 786-0 renal cancer cell line): induced GRP-78 expression
GRP-78 expression in cell lysate (GRP-78; [7]): induced GRP-78 expression
PAR-4 inducing activity (PAR-4 [1]): found to possess PAR-4 inducing activity

CC(C)N1CCN(c2ccc(OCC3COC(Cn4cncn4)(c4ccc(Cl)cc4Cl)O3)cc2)CC1 (stereo not shown) [Terconazole]
Dose dependence of PAR-4 induction (PAR-4 [3]): in a dose dependent manner
PAR-4 secretion in the cell supernatant (PAR-4 [3]; test concentration not given): able to induce robust PAR-4 secretion
Induction of PAR-4 in cell lysate (PAR-4 [3]): Induction of PAR-4
PAR-4 inducing activity (PAR-4 [1]): found to possess PAR-4 inducing activity

B1: recombinant PAR-4: recombinant PAR-4 protein injected in mice to elevate extracellular PAR-4 (protein, UniProt Q96IZ0 1-340, looked up)
PRKC apoptosis WT1 regulator …: MATGGYRTSSGLGGSTTDFLEEWKAKREKMRAKQNPPGPAPPGGGSSDAAGKPPAGALGTPAAAAANELNNNLPGGAPAAPAVPGPGGVNCAVGSAMLTRAAPGPRRSEDEPPAASASAAPPPQRDEEEPDGVPEKGKSSGPSARKGKGQIEKRKLREKRRSTGVVNIPAAECLDEYEDDEAGQKERKREDAITQQNTIQNEAVNLLDPGSSYLLQEPPRTVSGRYKSTTSVSEEDVSSRYSRTDRSGFPRYNRDANVSGTLVSSSTLEKKIEDLEKEVVRERQENLRLVRLMQDKEEMIGKLKEEIDLLNRDLDDIEDENEQLKQENKTLLKVVGQLTR
Effect on metastatic lung tumors (metastatic lung tumors): cause inhibition of metastatic lung tumors
